Assays:
SUMO E1 enzyme = target: T1, SUMO E1 enzyme (Homo sapiens, UniProt Q9UBT2); assay: ATP-dependent activation of SUMO-1 (ATP hydrolysis); assay type: biochemical
T1 sequence (Q9UBT2 1-640): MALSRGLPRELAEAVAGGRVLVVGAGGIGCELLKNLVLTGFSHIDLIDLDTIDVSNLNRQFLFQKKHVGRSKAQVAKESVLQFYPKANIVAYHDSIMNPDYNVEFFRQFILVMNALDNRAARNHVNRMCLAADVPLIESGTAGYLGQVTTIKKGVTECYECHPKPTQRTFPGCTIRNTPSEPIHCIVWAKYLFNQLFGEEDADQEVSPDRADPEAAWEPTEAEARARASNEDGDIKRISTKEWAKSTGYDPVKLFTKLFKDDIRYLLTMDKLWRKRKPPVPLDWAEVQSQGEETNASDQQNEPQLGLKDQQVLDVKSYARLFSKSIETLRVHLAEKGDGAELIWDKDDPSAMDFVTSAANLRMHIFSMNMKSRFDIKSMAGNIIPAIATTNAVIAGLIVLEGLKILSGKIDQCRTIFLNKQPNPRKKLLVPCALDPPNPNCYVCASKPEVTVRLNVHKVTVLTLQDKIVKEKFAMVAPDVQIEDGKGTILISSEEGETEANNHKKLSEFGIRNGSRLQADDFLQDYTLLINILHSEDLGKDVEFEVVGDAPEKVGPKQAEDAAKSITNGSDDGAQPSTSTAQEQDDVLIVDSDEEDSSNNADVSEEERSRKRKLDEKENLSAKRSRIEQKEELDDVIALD
T1 sequence (Q9UBE0 1-346): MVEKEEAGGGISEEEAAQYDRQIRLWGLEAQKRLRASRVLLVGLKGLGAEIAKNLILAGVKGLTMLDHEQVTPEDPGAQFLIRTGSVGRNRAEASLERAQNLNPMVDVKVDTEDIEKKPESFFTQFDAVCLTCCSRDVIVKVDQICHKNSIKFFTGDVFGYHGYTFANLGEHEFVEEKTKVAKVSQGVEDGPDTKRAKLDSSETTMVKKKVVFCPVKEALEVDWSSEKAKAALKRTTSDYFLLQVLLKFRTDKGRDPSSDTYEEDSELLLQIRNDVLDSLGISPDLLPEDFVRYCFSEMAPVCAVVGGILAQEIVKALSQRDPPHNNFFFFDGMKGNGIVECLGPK

[1] = tested on: Yorkshire pigs with severe heart failure; assay: Contractility in Yorkshire pigs with severe heart failure secondary to myocardial infarction; assay type: in vivo, pig; details: 5 mg/kg, intracoronary
Method: Example 1 was dosed in Yorkshire pigs at 5 mg/kg with severe heart failure secondary to myocardial infarction.
The experimental protocols complied with the National Institutes of Health Guide for the Care and Use of Laboratory Animals and standards of United States regulatory agencies. They were approved by the Institutional Animal Care and Use Committee of the Mount Sinai School of Medicine. Yorkshire pigs were pre-medicated using intramuscular Telazol™ (8.0 mg/kg; tiletamine hydrochloride and zolazepam hydrochloride; Fort Dodge Animal Health, Fort Dodge, Iowa). After the placement of an intravenous line, animals were intubated and ventilated with 100% oxygen. General anesthesia was maintained with intravenous propofol (8-10 mg/kg/hr) throughout the procedure.
The animals underwent a 2-hour balloon occlusion of the proximal LAD (left anterior descending coronary artery) followed by reperfusion. Ten minutes before MI creation a continuous infusion of 20 mEq potassium acetate, 75 mg amiodarone, and 2 mg atropine was initiated to reduce ischemia related arrhythmia. […] Arterial pressure, blood oxygen saturation (SpO2), and electrocardiogram were monitored closely throughout the procedure. […]
Cardiac performance was evaluated at one month after MI. […] Cardiac function was monitored and recorded for 3 hours after injection.

TAC mice = assay: Hemodynamics in mouse model of heart failure (TAC); assay type: in vivo; details: for ESPVR slope: baseline 3.1; for Tau(1/2): baseline 7.7; for Pmax: baseline 111.1; for HR: baseline 422.1; for +dP/dt Max: baseline 4738.7; for index of contractility ESPVR, dose dependence: infusion of increasing doses
Method: Hemodynamics were measured to evaluate the acute effect of Example 1 infusion on the cardiac function of the mouse model of HF. In the first set of experiments, mice were exposed to pressure overload by thoracic aortic constriction (TAC) or sham operation and received either EXAMPLE 1 or vehicle. At two months post-TAC animals developed HF. […] In addition, the positive chronotropic effect of dobutamine was no longer observed in TAC mice (FIG. 9). Following cannulation of the carotid artery and external jugular vein, infusion of EXAMPLE 1 or vehicle was performed as described in Method section. Pressure and conductance catheters were introduced in the LV through the carotid artery. Pressure and volume measurements were made simultaneously and pressure volume curves were constructed as the vehicle or EXAMPLE 1 were infused.
Hemodynamic data were obtained in 1 mg of EXAMPLE 1-treated failing hearts at 30 min and 60 min after compound treatment. […] The improvement occurred within 30 minutes after treatment and maintained for 60 minutes after treatment. […] The effects of EXAMPLE 1 on various hemodynamic parameters are shown in FIG. 9b and Table S1. dP/dt max increased with increasing concentration of EXAMPLE 1 while Tau a parameter of relaxation decreased an indication of enhanced relaxation.
A model of heart failure was created by transaortic constriction in the mouse for 6-8 weeks. Following cannulation of the carotid artery and external jugular vein, infusion of Example 1 or vehicle was performed as shown in the protocol in FIG. 16. Pressure and conductance catheters were introduced in the left ventricle through the carotid artery. Pressure and volume measurements were made simultaneously and pressure volume curves were constructed as the vehicle or Example 1 was infused.

[2] = failing hearts, 1 mg, 30 min and 60 min after treatment

COc1ccc(-c2nnc(Nc3nc4c(OC)cccc4s3)o2)cc1 [Example 1, N-(4-methoxybenzo[d]thiazol-2-yl)-5-(4-methoxyphenyl)-1,3,4-oxadiazol-2-amine]
EC50 (SUMO E1 enzyme): 40.5 ± 4.4 µM | increase in contractility (as measured by dP/dt) [1]: 25-30% | Tau (parameter of relaxation) with increasing concentration (TAC mice; TAC mice): decreased | dP/dt max with increasing concentration (TAC mice; TAC mice): increased | ESPVR slope (TAC mice; TAC mice, 0.1 mg/kg): 9.0 mmHg/A | Tau(1/2) (TAC mice; TAC mice, 0.1 mg/kg): 7.5 ms | Pmax (TAC mice; TAC mice, 0.1 mg/kg): 115.1 mmHg | HR (TAC mice; TAC mice, 0.1 mg/kg): 417.1 bpm | +dP/dt Max (TAC mice; TAC mice, 0.1 mg/kg): 4803.3 mmHg/sec | ESPVR slope (TAC mice; TAC mice, 1.0 mg/kg): 11.2 mmHg/A | Tau(1/2) (TAC mice; TAC mice, 1.0 mg/kg): 6.4 ms | Pmax (TAC mice; TAC mice, 1.0 mg/kg): 123.6 mmHg | HR (TAC mice; TAC mice, 1.0 mg/kg): 422.3 bpm | +dP/dt Max (TAC mice; TAC mice, 1.0 mg/kg): 5448.8 mmHg/sec | ESPVR slope (TAC mice; TAC mice, 10 mg/kg): 20.3 mmHg/A | Tau(1/2) (TAC mice; TAC mice, 10 mg/kg): 6.2 ± 0.4 ms | Pmax (TAC mice; TAC mice, 10 mg/kg): 124.5 mmHg | HR (TAC mice; TAC mice, 10 mg/kg): 455.1 bpm | +dP/dt Max (TAC mice; TAC mice, 10 mg/kg): 6229.4 mmHg/sec | index of contractility ESPVR, dose dependence (TAC mice; TAC mice): increase in the index of contractility ESPVR in a dose dependent fashion | index of contractility ESPVR, dose dependence (TAC mice; TAC mice, listed as EXAMPLE 1): increase in the index of contractility, ESPVR in a dose dependent manner | time the improvement was maintained after treatment (TAC mice; failing hearts, 1 mg): 60 min | time to improvement after treatment (TAC mice; failing hearts, 1 mg): ≤ 30 min | end systolic pressure-volume relationship (ESPVR) in the LV versus baseline (TAC mice; [2]): significantly steeper | rate of LV pressure rise (dP/dt max) versus baseline (TAC mice; [2]): increased cardiac contractility
